Assays:
Assay in all cases: drug sensitivity score (DSS), CellTox Green (DSS (AUC-based score)); higher = stronger drug effect (viability inhibition or cytotoxicity); extreme values may be limits of the assay
Conditions in all cases: incubation time: 72 h
BT-474 = system: BT-474
Outline: (§1)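 Breast cancer cell lines were seeded in 20 µl suspension into 384-well plates already holding compound and incubated for 72 h. Each compound was tested at 5 concentrations in 10-fold steps across its own 10,000-fold range. Plates were normalised to 0.1 % DMSO and a positive kill control after CellTox Green and then CellTiter-Glo readings. The area under the fitted dose-response curve served as the basis for the drug sensitivity score.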

BT-549 = system: BT-549
Outline: as §1

CAL-51 = system: CAL-51
Outline: as §1

CAL-85-1 = system: CAL-85-1
Outline: as §1

DU-4475 = system: DU-4475
Outline: as §1

HCC1143 = system: HCC1143
Outline: as §1

HCC1599 = system: HCC1599
Outline: as §1

HCC1937 = system: HCC1937
Outline: as §1

HDQ-P1 = system: HDQ-P1
Outline: as §1

Hs578T = system: Hs578T
Outline: as §1

MCF-10A = system: MCF-10A
Outline: as §1

MDA-MB-231 = system: MDA-MB-231
Outline: as §1

MDA-MB-436 = system: MDA-MB-436
Outline: as §1

MDA-MB-453 = system: MDA-MB-453
Outline: as §1

MDA-MB-468 = system: MDA-MB-468
Outline: as §1

MFM-223 = system: MFM-223
Outline: as §1

SMILES | drug sensitivity score (BT-474) | drug sensitivity score (BT-549) | drug sensitivity score (CAL-51) | drug sensitivity score (CAL-85-1) | drug sensitivity score (DU-4475) | drug sensitivity score (HCC1143) | drug sensitivity score (HCC1599) | drug sensitivity score (HCC1937) | drug sensitivity score (HDQ-P1) | drug sensitivity score (Hs578T) | drug sensitivity score (MCF-10A) | drug sensitivity score (MDA-MB-231) | drug sensitivity score (MDA-MB-436) | drug sensitivity score (MDA-MB-453) | drug sensitivity score (MDA-MB-468) | drug sensitivity score (MFM-223)
COc1cc2/c(=N/c3ccc(Br)cc3F)nc[nH]c2cc1OCC1CCN(C)CC1 [Vandetanib] | 0 | 0 | 0 | 0 | 0 | 0 | 0 | 0 | 1.32 | 0 | 0 | 3.15 | 0 | 0 | 0 | 0
COCC[n+]1c2c(n(Cc3cnccn3)c1C)C(=O)c1ccccc1C2=O [YM155] | 33.6 | 20.2 | 28.2 | 42.2 | 3.34 | 23.5 | 11.8 | 29.5 | 30.2 | 5.6 | 34.7 | 30.1 | 27.2 | 12.2 | 37.3 | 11.4
CC(C)C[C@@H](C(=O)N[C@H](C(=O)OC1CCCC1)c1ccccc1)[C@H](O)C(=O)NO [Tosedostat] | 2.81 | 9.06 | 15.2 | 21.8 | 0 | 1.52 | 0 | 0 | 10.1 | 1.64 | 0 | 26.6 | 10.1 | 0 | 20.1 | 0
O=C(/C=C/c1cccc(S(=O)(=O)Nc2ccccc2)c1)NO [Belinostat] | 8.01 | 0 | 13 | 11.5 | 3.83 | 0 | 0 | 0 | 0 | 6.63 | 10.5 | 17.8 | 0 | 0.0261 | 2.85 | 4.75
COc1cc2c(NC3CCN(C(C)C)CC3)nc(N3CCC(F)(F)CC3)nc2cc1OCCCN1CCCC1 [UNC0642] | 6.46 | 0 | 0 | 6.85 | 0 | 0 | 0 | 1.95 | 0 | 0 | 2.29 | 7.71 | 11 | 1.18 | 5.22 | 0
Oc1ccc2c(c1)CC[C@H](c1ccccc1)[C@@H]2c1ccc(OCCN2CCCC2)cc1 [Lasofoxifene] | 0 | 0 | 0 | 3.43 | 0 | 0 | 0 | 0 | 0 | 3.26 | 0 | 0 | 0 | 0 | 0 | 0
CN(C)c1nc(N(C)C)nc(N(C)C)n1 [Altretamine] | 0 | 0 | 0 | 0 | 0 | 0 | 0 | 0 | 0 | 0 | 0 | 0 | 0 | 0 | 0 | 0
CCc1c2c(nc3ccc(OC(=O)N4CCC(N5CCCCC5)CC4)cc13)-c1cc3c(c(=O)n1C2)COC(=O)[C@]3(O)CC [Irinotecan] | 0 | 0 | 10.7 | 0 | 0 | 0 | 0 | 0 | 0 | 1.06 | 0 | 0 | 0 | 0 | 0 | 0
CNC(=O)c1ccc(N2C(=S)N(c3ccc(C#N)c(C(F)(F)F)c3)C(=O)C2(C)C)cc1F [Enzalutamide] | 0 | 0 | 0 | 0 | 0 | 0 | 0 | 0 | 0 | 0 | 0 | 0 | 0 | 0 | 0 | 0
CO[C@H]1C[C@@H]2CC[C@@H](C)[C@@](O)(O2)C(=O)C(=O)N2CCCC[C@H]2C(=O)O[C@H]([C@H](C)C[C@@H]2CC[C@@H](OP(C)(C)=O)[C@H](OC)C2)CC(=O)[C@H](C)/C=C(\C)[C@@H](O)[C@@H](OC)C(=O)[C@H](C)C[C@H](C)/C=C/C=C/C=C/1C [Ridaforolimus] | 0 | 0 | 0 | 0 | 0 | 0 | 0 | 0 | 12.6 | 0 | 0 | 0.968 | 4.09 | 0 | 0 | 0

Source: the supplement of paper PMC4862054
